Measurements from patent US10213433B2 (AbbVie Inc., priority 2010, dated 2019).

biological target: Bcl-2 protein (Homo sapiens (Human), UniProt P10415); test: Bcl-2 binding TR-FRET (Time-Resolved Fluorescence-Resonance-Energy-Transfer) assay; details: inhibition constant for binding to Bcl-2 protein
Text: The smaller the Ki value, the greater is the binding affinity.

Bcl-2 protein, sequence (P10415 whole entry): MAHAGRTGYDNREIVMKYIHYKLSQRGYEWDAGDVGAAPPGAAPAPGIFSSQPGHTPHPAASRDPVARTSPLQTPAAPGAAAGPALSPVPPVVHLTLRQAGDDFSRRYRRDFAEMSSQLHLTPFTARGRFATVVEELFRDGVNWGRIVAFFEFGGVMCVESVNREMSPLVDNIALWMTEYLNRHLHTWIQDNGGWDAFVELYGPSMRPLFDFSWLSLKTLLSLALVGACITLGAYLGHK

Question: `CC1(C)CCC(CN2CCN(c3ccc(C(=O)NS(=O)(=O)c4ccc(N[C@@H]5CCN(S(C)(=O)=O)C5)c([N+](=O)[O-])c4)c(Oc4cnc5[nH]ccc5c4)c3)CC2)=C(c2ccc(Cl)cc2)C1` [Compound 149, 4-(4-{[2-(4-chlorophenyl)-4,4-dimethylcyclohex-1-en-1-yl]methyl}piperazin-1-yl)-N-[(4-{[(3R)-1-(methylsulfonyl)pyrrolidin-3-yl]amino}-3-nitrophenyl)sulfonyl]-2-(1H-pyrrolo[2,3-b]pyridin-5-yloxy)benzamide] was tested. Which Ki did it give?
Answer: < 10 pM

Question: How did the Ki turn out when `CC1(C)CCCC(CN2CCN(c3ccc(C(=O)NS(=O)(=O)c4ccc(NCC5CCOCC5)c([N+](=O)[O-])c4)c(Oc4cnc5[nH]ccc5c4)c3)CC2)=C1c1ccc(Cl)cc1` [Compound 150, 4-(4-{[2-(4-chlorophenyl)-3,3-dimethylcyclohex-1-en-1-yl]methyl}piperazin-1-yl)-N-({3-nitro-4-[(tetrahydro-2H-pyran-4-ylmethyl)amino]phenyl}sulfonyl)-2-(1H-pyrrolo[2,3-b]pyridin-5-yloxy)benzamide] was run?
Answer: < 10 pM

Question: `CC1(C)CCC(CN2CCN(c3ccc(C(=O)NS(=O)(=O)c4ccc(NCC5CCN(S(C)(=O)=O)C5)c([N+](=O)[O-])c4)c(Oc4cnc5[nH]ccc5c4)c3)CC2)=C(c2ccc(Cl)cc2)C1` (stereo not shown) [Compound 152, 4-(4-{[2-(4-chlorophenyl)-4,4-dimethylcyclohex-1-en-1-yl]methyl}piperazin-1-yl)-N-{[4-({[1-(methylsulfonyl)pyrrolidin-3-yl]methyl}amino)-3-nitrophenyl]sulfonyl}-2-(1H-pyrrolo[2,3-b]pyridin-5-yloxy)benzamide] was tested. Which Ki did it give?
Answer: < 10 pM

Question: With `CC(=O)N1CCC(CNc2ccc(S(=O)(=O)NC(=O)c3ccc(N4CCN(CC5=C(c6ccc(Cl)cc6)CC(C)(C)CC5)CC4)cc3Oc3cnc4[nH]ccc4c3)cc2[N+](=O)[O-])C1` (stereo not shown) [Compound 153, N-[(4-{[(1-acetylpyrrolidin-3-yl)methyl]amino}-3-nitrophenyl)sulfonyl]-4-(4-{[2-(4-chlorophenyl)-4,4-dimethylcyclohex-1-en-1-yl]methyl}piperazin-1-yl)-2-(1H-pyrrolo[2,3-b]pyridin-5-yloxy)benzamide] as the compound, how does the Ki read?
Answer: < 10 pM

Question: `CC(=O)N1CC[C@@H](Nc2ccc(S(=O)(=O)NC(=O)c3ccc(N4CCN(CC5=C(c6ccc(Cl)cc6)CC(C)(C)CC5)CC4)cc3Oc3cnc4[nH]ccc4c3)cc2[N+](=O)[O-])C1` [Compound 154, N-[(4-{[(3R)-1-acetylpyrrolidin-3-yl]amino}-3-nitrophenyl)sulfonyl]-4-(4-{[2-(4-chlorophenyl)-4,4-dimethylcyclohex-1-en-1-yl]methyl}piperazin-1-yl)-2-(1H-pyrrolo[2,3-b]pyridin-5-yloxy)benzamide] was tested. Which Ki did it give?
Answer: < 10 pM

Question: How did the Ki turn out when `CC1(C)CCC(CN2CCN(c3ccc(C(=O)NS(=O)(=O)c4ccc(NC[C@@H]5CC[C@@H](O)C5)c([N+](=O)[O-])c4)c(Oc4cnc5[nH]ccc5c4)c3)CC2)=C(c2ccc(Cl)cc2)C1` [Compound 156, 4-(4-{[2-(4-chlorophenyl)-4,4-dimethylcyclohex-1-en-1-yl]methyl}piperazin-1-yl)-N-{[4-({[(1R,3R)-3-hydroxycyclopentyl]methyl}amino)-3-nitrophenyl]sulfonyl}-2-(1H-pyrrolo[2,3-b]pyridin-5-yloxy)benzamide] was run?
Answer: < 10 pM

Question: For `CC1(C)CCC(CN2CCN(c3ccc(C(=O)NS(=O)(=O)c4ccc(NC[C@H]5CC[C@H](O)C5)c([N+](=O)[O-])c4)c(Oc4cnc5[nH]ccc5c4)c3)CC2)=C(c2ccc(Cl)cc2)C1` [Compound 157, 4-(4-{[2-(4-chlorophenyl)-4,4-dimethylcyclohex-1-en-1-yl]methyl}piperazin-1-yl)-N-{[4-({[(1S,3S)-3-hydroxycyclopentyl]methyl}amino)-3-nitrophenyl]sulfonyl}-2-(1H-pyrrolo[2,3-b]pyridin-5-yloxy)benzamide], which Ki is on record?
Answer: < 10 pM

Question: `CC1(C)CCC(CN2CCN(c3ccc(C(=O)NS(=O)(=O)c4ccc(NC[C@H]5CC[C@@H](O)C5)c([N+](=O)[O-])c4)c(Oc4cnc5[nH]ccc5c4)c3)CC2)=C(c2ccc(Cl)cc2)C1` [Compound 158, 4-(4-{[2-(4-chlorophenyl)-4,4-dimethylcyclohex-1-en-1-yl]methyl}piperazin-1-yl)-N-{[4-({[(1S,3R)-3-hydroxycyclopentyl]methyl}amino)-3-nitrophenyl]sulfonyl}-2-(1H-pyrrolo[2,3-b]pyridin-5-yloxy)benzamide] was tested. Which Ki did it give?
Answer: < 10 pM

Question: `CC1(C)CCC(CN2CCN(c3ccc(C(=O)NS(=O)(=O)c4ccc(NC[C@@H]5CC[C@H](O)C5)c([N+](=O)[O-])c4)c(Oc4cnc5[nH]ccc5c4)c3)CC2)=C(c2ccc(Cl)cc2)C1` [Compound 159, 4-(4-{[2-(4-chlorophenyl)-4,4-dimethylcyclohex-1-en-1-yl]methyl}piperazin-1-yl)-N-{[4-({[(1R,3S)-3-hydroxycyclopentyl]methyl}amino)-3-nitrophenyl]sulfonyl}-2-(1H-pyrrolo[2,3-b]pyridin-5-yloxy)benzamide] was tested. Which Ki did it give?
Answer: < 10 pM

Question: How did the Ki turn out when `CC1(C)CCC(CN2CCN(c3ccc(C(=O)NS(=O)(=O)c4ccc(N[C@H]5CCCNC5=O)c([N+](=O)[O-])c4)c(Oc4cnc5[nH]ccc5c4)c3)CC2)=C(c2ccc(Cl)cc2)C1` [Compound 160, 4-(4-{[2-(4-chlorophenyl)-4,4-dimethylcyclohex-1-en-1-yl]methyl}piperazin-1-yl)-N-[(3-nitro-4-{[(3S)-2-oxopiperidin-3-yl]amino}phenyl)sulfonyl]-2-(1H-pyrrolo[2,3-b]pyridin-5-yloxy)benzamide] was run?
Answer: < 10 pM

Question: `CC1(C)CCC(CN2CCN(c3ccc(C(=O)NS(=O)(=O)c4ccc(NCC5CN(C(CF)CF)C5)c([N+](=O)[O-])c4)c(Oc4cnc5[nH]ccc5c4)c3)CC2)=C(c2ccc(Cl)cc2)C1` [Compound 161, 4-(4-{[2-(4-chlorophenyl)-4,4-dimethylcyclohex-1-en-1-yl]methyl}piperazin-1-yl)-N-({4-[({1-[2-fluoro-1-(fluoromethyl)ethyl]azetidin-3-yl}methyl)amino]-3-nitrophenyl}sulfonyl)-2-(1H-pyrrolo[2,3-b]pyridin-5-yloxy)benzamide] was tested. Which Ki did it give?
Answer: < 10 pM

Question: For `CC1(C)CCC(CN2CCN(c3ccc(C(=O)NS(=O)(=O)c4ccc(NCC5CN(C6COC6)C5)c([N+](=O)[O-])c4)c(Oc4cnc5[nH]ccc5c4)c3)CC2)=C(c2ccc(Cl)cc2)C1` [Compound 162, 4-(4-{[2-(4-chlorophenyl)-4,4-dimethylcyclohex-1-en-1-yl]methyl}piperazin-1-yl)-N-[(3-nitro-4-{[(1-oxetan-3-ylazetidin-3-yl)methyl]amino}phenyl)sulfonyl]-2-(1H-pyrrolo[2,3-b]pyridin-5-yloxy)benzamide], which Ki is on record?
Answer: < 10 pM

Question: With `CC1(C)CCC(CN2CCN(c3ccc(C(=O)NS(=O)(=O)c4ccc(NCC5CCN(C6COC6)CC5)c([N+](=O)[O-])c4)c(Oc4cnc5[nH]ccc5c4)c3)CC2)=C(c2ccc(Cl)cc2)C1` [Compound 163, 4-(4-{[2-(4-chlorophenyl)-4,4-dimethylcyclohex-1-en-1-yl]methyl}piperazin-1-yl)-N-[(3-nitro-4-{[(1-oxetan-3-ylpiperidin-4-yl)methyl]amino}phenyl)sulfonyl]-2-(1H-pyrrolo[2,3-b]pyridin-5-yloxy)benzamide] as the compound, how does the Ki read?
Answer: < 10 pM
